In patent US20210338665A1, “MEDICAL USE OF PROSTACYCLIN RECEPTOR AGONIST” (CHINESE PLA GENERAL HOSPITAL, priority 2018, published 2021):

Test system: SD rats in a low-pressure low-oxygen environment
Assay: Rat high altitude model in a low-pressure low-oxygen cabin (380 mmHg, simulated altitude of 5,500 meters): cardio-pulmonary function
Assay type: in vivo
Conditions: twice every day for 14 days, compared with the model group; for mean pulmonary arterial pressure (mPAP): P<0.05
Procedure: 40 SD rats (about 200 g, male, clean) are purchased from Beijing Vital River Laboratory Animal Technology Co. Ltd and have the license number of SCXK(Jing)2016-0006. The SD rats are fed in a low-pressure oxygen cabin, and regularly fed with a complete nutritional feed under the conditions of the room temperature of 22 to 25° C. and the humidity of 30% to 50%.
Solvent configuration: 20% of HP-β-CD and 80% of double distilled water, and pH=8.
A blank control group: normal-pressure normal-oxygen feeding
A model group: a low-pressure low-oxygen cabin, and intragastric administration of a solvent
An experimental group A: a low-pressure low-oxygen cabin, and intragastric administration of sc0253 (5 mg/kg) as well as a solvent
An experimental group B: a low-pressure low-oxygen cabin, and intragastric administration of sc0253 (10 mg/kg) as well as a solvent
40 rats are randomly divided into four groups, and each group includes 10 rats. 3 groups are placed into an experiment module, the pressure inside the module is regulated to 380 mmHg, a high altitude environment with an altitude of 5,500 meters is simulated, the experiment module is opened for 1 hour every day so as to add feed and water for animals and carry out corresponding medicine treatment, meanwhile, the environment where the rats are positioned are kept alternate day and night according to a ratio of 12h:12h, and after 14 days, intragastric administration is respectively carried out in which the solvent (the model group), the sc0253 (5 mg/kg) and the solvent (the experimental group A) or the sc0253 (10 mg/kg) and the solvent (the experimental group B) are respectively applied, and the operation is carried out twice every day and continued for 14 days. Rats in the fourth group are placed in the same room to be fed in the normal-pressure normal-oxygen environment (the blank control group).
3% pentobarbital sodium (0.2 mL/100 g) is intraperitoneally injected to anesthetize the rats, and ultrasonic detection is carried out. The following ultrasonic data is recorded: right ventricular ejection fraction (RVEF); and right ventricular fractional shortening (RVFS). Then the anesthetized rats are fixed on an operating table in a supine position mode, tracheotomy is carried out, a breathing machine is connected, thoracotomy is carried out to expose the hearts, a catheter is inserted into each right ventricle, right heart catheterization is carried out, and the right ventricular systolic pressure is recorded. Then each catheter is slowly pushed forwards, and can reach a corresponding pulmonary artery through a corresponding right ventricular outflow tract, the pressure waveform of a monitor is observed, and the mean pulmonary arterial pressure mPAP is recorded. The rats are executed, the hearts are taken out, the atrial tissue and attached fat are removed, left and right ventricles are separated, moisture is sucked up by filter paper, the weights of the right ventricles and the left ventricles are respectively weighed, and (RV/(LV+IS)) is calculated.
All the data is represented by x±s, comparison among the groups is single factor analysis of variance, when P<0.05, it represents that the difference has a statistical significance, and statistical treatment is carried out by adopting an SPSS19.0 software package.

[1] = experimental group B: sc0253 10 mg/kg intragastric, ultrasonic detection, P<0.01

SMILES: O=C(O)COCC1(F)CCN(c2cncc(N(c3ccccc3)c3ccc(F)cn3)n2)CC1 [sc0253]
- mean pulmonary arterial pressure (mPAP) (experimental group A: sc0253 5 mg/kg intragastric): obviously reduced
- right ventricular hypertrophy index RV/(LV+OS) (experimental group B: sc0253 10 mg/kg intragastric, P<0.01): obviously reduced
- mean pulmonary arterial pressure (mPAP) (experimental group B: sc0253 10 mg/kg intragastric): obviously reduced
- right ventricular ejection fraction (RVEF) [1]: obviously increased
- right ventricular fractional shortening (RVFS) [1]: obviously increased
